From PMC3139892, “Effective Control of Postprandial Glucose Level through Inhibition of Intestinal Alpha Glucosidase by Cymbopogon martinii (Roxb.)” (Evidence-based Complementary and Alternative Medicine : eCAM, 2011)

Target: T1, intestinal alpha glucosidase (maltase activity)
T1 construct: gene Mgam; mixture of intestinal alpha-glucosidases
Experiment: maltose hydrolysis, glucose by glucose oxidase (GOD-PAP)
Format: biochemical, Rattus norvegicus
Conditions: 25 mM maltose, 100 mM phosphate pH 7.2, 37°C, 30 min; mucosal enzyme preparation
Text: maltose hydrolysis, glucose by glucose oxidase (GOD-PAP) on intestinal alpha glucosidase (maltase activity)

C[C@H]1O[C@H](O[C@H]2[C@H](O)[C@@H](O)[C@@H](O[C@H]3[C@H](O)[C@@H](O)C(O)O[C@@H]3CO)O[C@@H]2CO)[C@H](O)[C@@H](O)[C@@H]1N[C@H]1C=C(CO)[C@@H](O)[C@H](O)[C@H]1O (stereo partly shown) [acarbose]
Acarbose / IC50: 60 µg/mL
